Patent US8354455B2, “Prodrugs containing novel bio-cleavable linkers” (Piramal Enterprises Limited and Apparao Satyam, priority 2004, dated 2013)
Read-outs that look alike come from different tables or passages of the source. Marks after values point to notes of the source that are not given here.

Assays:
MES-induced seizures = assay: Maximal Electroshock Test (MES), Test 1, mice i.p.; format: in vivo; conditions: for minimal effective dose: Mus musculus, ip, symbol = dose with activity
convulsant metrazol = assay: Subcutaneous Metrazol Seizure Threshold Test (scMET), Test 1, mice i.p.; format: in vivo; conditions: for minimal effective dose: Mus musculus, ip, symbol = dose with activity; for ScMET (number of animal protected/number of animal tested): mice, i.p., 300 mg/kg (+)
mice = conditions: for Rotorod Toxicity (number of animals exhibiting toxicity/number of animals tested) / Rotorod Toxicity 0.5 h / Rotorod Toxicity 4.0 h: mice, i.p.; for Rotorod Toxicity (number of animals exhibiting toxicity/number of animals tested) / Rotorod Toxicity 0.5 h: 0.5 h; for Rotorod Toxicity 0.5 h / Rotorod Toxicity 4.0 h: symbol = dose with toxicity
rats = assay: Neurotoxicity, rats p.o. (Test 2 and Test 3); conditions: Test 2, rats p.o., 30 mg/kg
Text: Acute Toxicity—Minimal Motor Impairment (MMI): To assess a compound's undesirable side effects (toxicity), animals were monitored for overt signs of impaired neurological or muscular function.
Groups of at least 8 rats received various doses of the candidate compound until at least two points were established between the limits of 100 percent protection or toxicity and zero percent protection or minimal toxicity. The 95 percent confidence limits, slopes of the regression lines and standard errors of the slopes were calculated for each quantitative determination. Rats received test compounds orally.
This secondary evaluation determines the time to peak effect (TPE), neurotoxicity, median effective dose (ED50) and biological response.

[1] = 0.5 h, read-out: MES 0.5 h, mice, i.p., 0.5 h
[2] = 4 h, read-out: MES 4.0 h, mice, i.p., 4.0 h
[3] = mice, i.p., 0.5 h, 300 mg/kg (+)
[4] = 0.5 h, read-out: ScMET 0.5 h, mice, i.p., 0.5 h
[5] = 4 h, read-out: ScMET 4.0 h, mice, i.p., 4.0 h
[6] = mice, i.p., 4.0 h, 300 mg/kg (+)

Structure (SMILES) | minimal effective dose (MES-induced seizures; [1]) [mg/kg] | minimal effective dose (MES-induced seizures; [2]) [mg/kg] | MES (number of animal protected/number of animal tested) (MES-induced seizures; [3]) | minimal effective dose (convulsant metrazol; [4]) [mg/kg] | minimal effective dose (convulsant metrazol; [5]) [mg/kg] | ScMET (number of animal protected/number of animal tested) (convulsant metrazol; 0.5 h) | Rotorod Toxicity (number of animals exhibiting toxicity/number of animals tested) (mice; 300 mg/kg (+)) | Rotorod Toxicity 0.5 h (mice) | Rotorod Toxicity 4.0 h (mice) | activity in MES model (in words) (MES-induced seizures; Test 1, mice i.p.) | MES (number of animal protected/number of animal tested) (MES-induced seizures; [6]) | toxicity (in words) (mice; Test 1, mice i.p.) | Toxicity (number of animals exhibiting toxicity/number of animals tested) (rats; 1.00 h) | Toxicity (number of animals exhibiting toxicity/number of animals tested) (rats; 2.00 h) | Toxicity (number of animals exhibiting toxicity/number of animals tested) (rats; 4.00 h) | MES, at 0.25 hours after dosing (MES-induced seizures; mice, i.p., 0.25 h (footnote k; printed in 0.5 h column)) | MES (number of animal protected/number of animal tested) (MES-induced seizures; mice, i.p., 0.5 h, 100 mg/kg (++)) | Rotorod Toxicity (number of animals exhibiting toxicity/number of animals tested) (mice; 100 mg/kg (++))
CCOC(=O)CC1(CNC(=O)OCCSSCCOC(C)=O)CCCCC1 [I-A1-PD13] | < 300 | > 300 | (1/1) | < 300 | > 300 | (1/1) | (1/4) | + (+ = activity or toxicity at 300 mg/kg) | — (— = no activity or no toxicity at 300 mg/kg) |  |  |  |  |  |  |  |  | 
Nc1nc(NC(=O)OCCSSCCOC(=O)NCC2(CC(=O)O)CCCCC2)nnc1-c1cccc(Cl)c1Cl [I-AA-MPD11] | > 300 |  |  | > 300 | > 300 |  |  |  | — (— = no activity or no toxicity at 300 mg/kg) | active in MES | (1/1) | no or mild toxicity | 0/4 | 0/4 | 0/4 |  |  | 
CCOC(=O)CC1(CNC(=O)OCCSSCCO[N+](=O)[O-])CCCCC1 [I-A1-NOPD1] | < 300 | > 300 |  | > 300 | > 300 |  |  |  | — (— = no activity or no toxicity at 300 mg/kg) |  |  |  |  |  |  | ++ (++ = activity or toxicity at 100 mg/kg) |  | 
CCOC(=O)CC1(CNC(=O)OCCSSCCOC(=O)NC(CO)C(=O)OC)CCCCC1 (stereo not shown) [I-A1-PD6] | < 300 | > 300 | (1/1) | < 300 | > 300 | (1/1) | (4/4)^i | + (+ = activity or toxicity at 300 mg/kg) | — (— = no activity or no toxicity at 300 mg/kg) |  |  |  |  |  |  |  |  | 
CCOC(=O)CC1(CNC(=O)OCCSSCCO)CCCCC1 [I-A1-PD8] |  | > 300 | (1/1) | > 300 | > 300 | (1/1) | (4/4)^f |  | — (— = no activity or no toxicity at 300 mg/kg) |  | (1/1) |  |  |  |  |  | (2/3) | 
CCOC(=O)CC1(CNC(=O)OCCSSCCOC(=O)NC(CCC(=O)OC)C(=O)OC)CCCCC1 (stereo not shown) [I-A1-PD7] | < 300 | > 300 | (1/1) | < 300 | > 300 | (1/1)^e | (2/4)^d | + (+ = activity or toxicity at 300 mg/kg) | — (— = no activity or no toxicity at 300 mg/kg) |  |  |  |  |  |  |  |  | 
CCOC(=O)CC1(CNC(=O)OCCSSCCOC(=O)NC(=O)[C@H](CC)N2CCCC2=O)CCCCC1 [I-AA-MPD13] | > 300 | > 300 |  | < 300 | > 300 |  |  | + (+ = activity or toxicity at 300 mg/kg) | — (— = no activity or no toxicity at 300 mg/kg) |  |  |  |  |  |  |  |  | 
CCOC(=O)CC1(CNC(=O)OCCSSCCOC(=O)NCCN(C)C)CCCCC1 [I-A1-PD10] | > 300 | > 300 |  | > 300 | > 300 |  |  | ++ (++ = activity or toxicity at 100 mg/kg) |  |  |  |  |  |  |  |  |  | (8/8)^j
